Results taken from patent US20090048214A1, “Methods for Treating Renal Tumors Using 2, 4-Pyrimidinediamine Drug and Prodrug Compounds” (RIGEL PHARMACEUTICALS, INC, priority 2006, published 2009).

Key:
[1] = detailed in US2006/0211657 A1; cited from earlier work
[2] = system: A498 renal carcinoma cells; test: A498 renal carcinoma subcutaneous xenograft study; assay type: in vivo, NCR nu/nu female mice
Experimental: NCR nu/nu female mice (8-9 weeks old, Harlan Laboratories, Madison, Wis.) were injected subcutaneously on the right hind flank with 5×10^7 A498 renal carcinoma cells in a 50:50 mixture of cells in PBS and Matrigel® (Cat# 356234, LDEV negative, BD Biosciences, Boston, Mass.). Tumor growth was determined by measuring the tumor in two dimensions (L×W) with electronic calipers (Ultra Cal IV, Fred V Fowler Co, Newton, Mass.). Volume was calculated using Study Director Animal Study Management Software (Studylog Systems, South San Francisco, Calif.) as follows: V=(L×W^2)/2,where L and W are the tumor length and width, respectively. Animals were randomized by stratified tumor size and treatment was initiated when the average tumor size was approximately 82 mm^3 (Study Day 0, 17 days post-injection). Test compound was administered ad libitum in the feed as a formulation of 0, 0.5, 2, or 3 g Compound A per kg of AIN-76A rodent diet (Research Diets, Inc, New Brunswick, N.J.). Animals were weighed and tumors measured twice weekly from the day of cell injection to study termination.

[3] = system: RXF-393 kidney tumor fragments; test: RXF-393 renal carcinoma orthotopic xenograft study; assay type: in vivo, Nu/nu mice; conditions: for median tumor weight: following 16 days of treatment, vehicle 485 mg
Experimental: RXF-393 kidney tumor fragments were implanted intrarenally into Nu/nu mice. On days 5-20 post-implantation animals were fed the Research Diet chow containing Compound A at the following dose levels: 0 g/kg (control), 0.5 g/kg (expected dose 75 mg/kg/day), 2.0 g/kg (expected dose 300 mg/kg/day), or 3.0 g/kg (expected dose 450 mg/kg/day). Tumors were allowed to grow orthotopically, body weights were measured twice weekly, and the animals were sacrificed on Day 23. Both the implanted kidney and the unimplanted kidney were weighed, and the tumor weight is expressed as the difference in kidney weights for each animal.

For `COc1cc(Nc2ncc(F)c(Nc3ccc4c(n3)N(COP(=O)(O)O)C(=O)C(C)(C)O4)n2)cc(OC)c1OC` [Compound A], the “metabolism of prodrug in vivo” value [1] is listed as “metabolize in vivo to the corresponding active 2,4-pyrimidinediamine compound, Compound 1”, the Mean body weights ([2]; 0, 0.5, 2.0, 3.0 g Compound A/kg feed groups) is listed as “not different among the groups” and the “effect on tumor growth, dose dependence” value ([2]; 0.5, 2.0, 3.0 g Compound A/kg feed) is listed as “dose-dependent effect on tumor growth was observed”. For the same compound, the “%T/C” value ([2]; 2.0 g Compound A/kg feed, Day 23) was 62%, the mean tumor volume ([2]; 2.0 g Compound A/kg feed, by Day 23, control 665, p>0.05) was 485 mm^3 and the mean tumor volume ([2]; 3.0 g Compound A/kg feed ad libitum, after 24 days of treatment, vehicle 665, p<0.05) was 372 mm^3. The “median change in tumor volume, treated relative to control (% T/C)” value ([2]; 3.0 g Compound A/kg feed, after 24 days of treatment) was 35%, the “reduction in tumor weight vs vehicle” value ([3]; high (3 g/kg) and mid (2 g/kg) dose groups, 16 days of treatment) was roughly 10 fold and the median tumor weight ([3]; high dose 3 g/kg food (450 mg/kg/dose), p<0.0001) was 63 mg. For the same compound, the “reduction in median tumor weight compared with vehicle” value ([3]; low dose group (75 mg/kg/dose, 0.5 g Compound A/kg food)) was “approximately 25%” and the median tumor weight ([3]; mid dose 2 g/kg food (300 mg/kg/dose), p<0.0006) was 74 mg.
